Where no end group is shown, it is not given here. [ ]: non-standard residue; d: D form.
Assays:
[1] = test system: Wistar rats; assay: 0.5% dextran-induced non-neurogenic inflammation (foot swelling, plethysmometer) after chronic denervation; assay type: in vivo, rat
Method: This test is based on the fact that a non-neurogenic, so-called clearly chemical inflammation can be induced by chemical excitation (e.g. by dextran, carrageenin, formalin) on a chronically denervated body area at least 5 days following the transsection of the nerve. These chemical agents release inflammation-inducing substances (histamine, bradykinin, PAF, prostaglandins and leucotrienes) from immunocytes, chiefly from mast cells.
Dextran solution (0.1 ml, 0.5%) is administered into both feet, underneath the plantar skin of Wistar rats (5 to 7 animals in each group) anaesthetized by nembutal (40 mg/kg i.v.) 5 days after bilateral denervation (transsection of the saphenous and sciatic nerves) of the lower limbs. The pretreated animals received somatostatin (SS), ocreotide or TT-232 (10 μg/kg i.p.) 10 minutes earlier. Before the administration of dextran (0 minute value), then after 10, 20 and 30 minutes, respectively, the swelling of the feet was measured by using a plethysmometer (Ugo Basil). Dextran elicits the so-called clearly chemical inflammation in the feet deprived of nerve supply (innervation) through the transmitters released from the mast cells.
A dose/effect ratio was determined for each substance.

[2] = test system: release of sensory neuropeptides from the trachea of rats; assay: In vitro release of sensory neuropeptides (SP, CGRP, SOM) from the trachea of rats, RIA; design: species or system rat
Method: After bleeding out, the tracheas of two rats each were removed, placed into an organ bath (1.8 ml) and Krebs solution saturated with oxygen (95% of oxygen and 5% of carbon dioxide) was bubbled through it at 37° C. for 60 minutes (with a rate of 1 ml/min). After stopping the flow, the bath solution was changed 3 times (pre-stimulated—stimulated—post-stimulated) for 8 minutes. The release of sensory neuropeptides from the tissue samples was induced by electric (40 V, 0.1 ms, 10 Hz, 120 s) and chemical (10^−7 M of capsaicin) stimulation, in the presence or absence of TT-232 (200 nM, 500 nM). The fractions were collected in ice-cold tubes; the wet weights of tracheas were measured. The concentrations of substance P (SP), calcitonin gene-related peptide (CGRP) and somatostatin (SOM) were determined by using a specific radioimmunoassay (RIA) developed in our laboratory and expressed as the amount of peptide released from one g of tissue. The limits of measurements were: 2 fmol/tube for SP; 1 fmol/tube for CGRP; and 2 fmol/tube for SOM [Németh, J.: Acta Physiol. Hung. 84, 313-315 (1996); Helyes, Zs.: Br. J. Pharmacol. 121, 613-615 (1997)].

[3] = test system: Wistar rats; assay: Analgetic action: vegetative (pseudoaffective) reflex responses to mustard oil and capsaicin under urethane anaesthesia; assay type: in vivo, rat; design: Increase in heart rate: unit not given here; conditions: 10 μg/kg i.p.
Source text: This test is based on the synchronous registration of several components of so-called pseudoaffective reflex responses, which can be induced on animals by pain-producing stimuli [Lim, R. K. S.: J. Comp. Neurol 118, 269-294 (1962)] under urethane anaesthesia.
A significant blood pressure increase of 45 mmHg as an average pressor response, heart rate increase of 85 (as an average) and hyperpnoea (the number of respirations increases by 61 per minute as an average) can be observed in control animals on the effect of strong chemonociceptive stimuli (painting of the lower limbs with 1% mustard oil or dropping a capsaicin solution of 100 μg/ml concentration into the eye) under urethane anaesthesia.
The blood pressure, heart rate and respiration of intact Wistar rats (5 to 7 animals in each group, with a body weight of 250 to 350 g) were continuously registered for 40 minutes through an arterial cannula as well as double ramifying trachea cannula. Ten minutes before beginning the measurement, the pretreated animals received intraperitoneally 10 μg/kg of somatostatin (SS), octreotide or TT-232, respectively. Both lower limbs of the animals were painted with mustard oil in the 3rd minute and capsaicin solution was dropped into their eyes in the 23rd minute. The vegetative responses given on these nociceptive stimuli were evaluated by using a specific computer program.

[4] = test system: rats; assay: Bradykinin-induced non-neurogenic inflammation (Evans blue extravasation) after chronic denervation; assay type: in vivo, rat
Method: After chronic denervation (see 1.2.1.), each group of 5 rats received various doses (1, 2.5, 5, 10 or 20 μg, respectively, i.v.) of TT-232 and simultaneously Evans blue (50 mg/kg i.v.). Ten minutes later, bradykinin was injected underneath the plantar skin of the lower limbs of the rats. After 15 minutes the animals were bled and the amount of the extravasated Evans blue (expressed as […] related to the wet tissue) was determined as.described above (1.1.).

[5] = test system: unanaesthetized animals; assay: Mechanical nociceptive threshold, Randall-Selitto test after carrageenin; assay type: in vivo; conditions: 30 minutes after carrageenin
Method: The mechanical nociceptive threshold was investigated by using the Randall-Selitto test (Ugo Basil equipment) on unanaesthetized animals. Before the beginning of the experiment, the animals were tested several times to provide their adaptation to the experimental conditions. The animals received TT-232 in various concentrations (1.25, 2.5, 5, 10 μg i.v.) and after 15 minutes, carrageenin (0.1 ml of 1% solution) was injected into the plantar skin of the lower limbs of the animals.

[6] = capsaicin stimulation, 200 nM TT-232
[7] = capsaicin stimulation, 500 nM TT-232
[8] = electrical stimulation, 500 nm TT-232

Question: For “D-Phe-Cys-Tyr-D-Trp-Lys-Cys-Thr-NH2 ([dF]CY[dW]KCT-NH2; cysteine pairing not given here) [TT-232]”, which “prevention of dextran-induced non-neurogenic inflammation (in words)” value ([1]; 10 μg/kg, even 40 minutes following the pretreatment) is on record?
Answer: Its value is “significantly prevented”.

Question: And the foot swelling % ([1]; Table 2.a, 0.5 μg/kg, 10 minutes)?
Answer: Its foot swelling % is 27.63 ± 3.5%.

Question: What about the foot swelling % ([1]; Table 2.a, 0.5 μg/kg, 20 minutes) of the same substance?
Answer: The foot swelling % was 39.94 ± 3.07%.

Question: What about the foot swelling % ([1]; Table 2.a, 0.5 μg/kg, 30 minutes) of the same substance?
Answer: Its foot swelling % is 41.33 ± 5.95%.

Question: What about the foot swelling % ([1]; Table 2.a, 1.0 μg/kg, 10 minutes) of the same substance?
Answer: The foot swelling % was 20.51 ± 2.92%.

Question: And the foot swelling % ([1]; Table 2.a, 1.0 μg/kg, 20 minutes)?
Answer: The foot swelling % was 38.07 ± 3.12%.

Question: What about the foot swelling % ([1]; Table 2.a, 1.0 μg/kg, 30 minutes) of the same substance?
Answer: Its foot swelling % is 44.32 ± 3.18%.

Question: And the foot swelling % ([1]; Table 2.a, 2.5 μg/kg, 10 minutes)?
Answer: The foot swelling % was 20.54 ± 5.16%.

Question: And the foot swelling % ([1]; Table 2.a, 2.5 μg/kg, 20 minutes)?
Answer: The foot swelling % was 33.02 ± 4.46%.

Question: And the foot swelling % ([1]; Table 2.a, 2.5 μg/kg, 30 minutes)?
Answer: The foot swelling % was 39.59 ± 4.76%.

Question: What about the foot swelling % ([1]; Table 2.a, 5.0 μg/kg, 10 minutes) of the same substance?
Answer: Its foot swelling % is 17.29 ± 3.13%.

Question: What about the foot swelling % ([1]; Table 2.a, 5.0 μg/kg, 20 minutes) of the same substance?
Answer: Its foot swelling % is 27.81 ± 2.39%.

Question: What about the foot swelling % ([1]; Table 2.a, 5.0 μg/kg, 30 minutes) of the same substance?
Answer: Its foot swelling % is 35.95 ± 2.97%.

Question: And the foot swelling % ([1]; Table 2.a, 10 μg/kg, 10 minutes)?
Answer: Its foot swelling % is 17.60 ± 2.05%.

Question: What about the foot swelling % ([1]; Table 2.a, 10 μg/kg, 20 minutes) of the same substance?
Answer: The foot swelling % was 27.59 ± 2.5%.

Question: What about the foot swelling % ([1]; Table 2.a, 10 μg/kg, 30 minutes) of the same substance?
Answer: Its foot swelling % is 36.40 ± 1.71%.

Question: And the foot swelling % ([1]; Table 2.a, 20 μg/kg, 10 minutes)?
Answer: Its foot swelling % is 19.56 ± 1.71%.

Question: And the foot swelling % ([1]; Table 2.a, 20 μg/kg, 20 minutes)?
Answer: Its foot swelling % is 29.73 ± 1.7%.

Question: And the foot swelling % ([1]; Table 2.a, 20 μg/kg, 30 minutes)?
Answer: Its foot swelling % is 37.67 ± 2.33%.

Question: And the “prevention of foot-swelling compared with diclofenac and meloxicam (in words)” value ([1]; Table 2.a, TT-232 concentration a thousandth part of the others)?
Answer: Its value is “more effectively”.

Question: What about the foot swelling % ([1]; Table 2, 10 μg/kg i.p. 10 min before dextran, 10 minutes, control 32.97) of the same substance?
Answer: Its foot swelling % is 24.4%.

Question: And the foot swelling % ([1]; Table 2, 10 μg/kg i.p. 10 min before dextran, 20 minutes, control 49.695)?
Answer: Its foot swelling % is 34.39%.

Question: What about the foot swelling % ([1]; Table 2, 10 μg/kg i.p. 10 min before dextran, 30 minutes, control 56.68) of the same substance?
Answer: The foot swelling % was 29.43%.

Question: What about the “decrease of capsaicin-induced SOM release” value [2, 6] of the same substance?
Answer: The value was 48%.

Question: And the “decrease of capsaicin-induced SP release” value [2, 6]?
Answer: Its value is 44%.

Question: What about the “inhibition of capsaicin-induced CGRP release” value [2, 7] of the same substance?
Answer: The value was 27%.

Question: And the “inhibition of capsaicin-induced SOM release” value [2, 7]?
Answer: The value was 74%.

Question: What about the “inhibition of capsaicin-induced SP release” value [2, 7] of the same substance?
Answer: The value was 79%.

Question: What about the “inhibition of CGRP release” value [2, 8] of the same substance?
Answer: Its value is 48%.

Question: And the “inhibition of SOM release” value [2, 8]?
Answer: The value was 42%.

Question: What about the “inhibition of SP release” value [2, 8] of the same substance?
Answer: The value was 36%.

Question: And the “amount of SOM released” value ([2]; electrical stimulation, 500 nm TT-232, without TT-232 0.51 fmol/mg)?
Answer: Its value is 0.39 fmol/mg.

Question: What about the “amount of CGRP released” value ([2]; electrical stimulation, 500 nm TT-232, without TT-232 0.69 fmol/mg) of the same substance?
Answer: Its value is 0.36 fmol/mg.

Question: And the “amount of SP released” value ([2]; electrical stimulation, 500 nm TT-232, without TT-232 6 fmol/mg)?
Answer: The value was 3.8 fmol/mg.

Question: What about the “basal, non-stimulated release of the neuropeptides (in words)” value ([2]; no stimulation) of the same substance?
Answer: Its value is “not affected”.

Question: What about the “protection against pseudoaffective reflex triad elicited by mustard oil and capsaicin (in words)” value ([3]; 10 minutes before mustard oil) of the same substance?
Answer: The value was “practically complete protection”.

Question: What about the “Increase in respiration rate” value ([3]; after dropping capsaicin solution into the eye, control 47.5) of the same substance?
Answer: The value was 17.85 per minute.

Question: And the “Increase in mean arterial pressure” value ([3]; after dropping capsaicin solution into the eye, control 55)?
Answer: Its value is 13 mmHg.

Question: What about the “Increase in heart rate” value ([3]; after dropping capsaicin solution into the eye, control 143) of the same substance?
Answer: The value was 22.88.

Question: What about the “Increase in mean arterial pressure” value ([3]; after painting the feet by mustard oil, control 45.4) of the same substance?
Answer: The value was 4.86 mmHg.

Question: And the “Increase in respiration rate” value ([3]; after painting the feet by mustard oil, control 60.75)?
Answer: The value was 12 per minute.

Question: And the “Increase in heart rate” value ([3]; after painting the feet by mustard oil, control 84.8)?
Answer: Its value is 13.71.

Question: What about the Evans blue extravasation ([4]; TT-232 1 μg/kg i.v., control (buffer) 127.35 ± 7.11) of the same substance?
Answer: The Evans blue extravasation was 98.21 ± 7.44 µg/kg.

Question: And the Evans blue extravasation ([4]; TT-232 2.5 μg/kg i.v.)?
Answer: Its Evans blue extravasation is 85.02 ± 7.33 µg/kg.

Question: And the Evans blue extravasation ([4]; TT-232 5 μg/kg i.v.)?
Answer: The Evans blue extravasation was 81.95 ± 7.64 µg/kg.

Question: And the Evans blue extravasation ([4]; TT-232 10 μg/kg i.v.)?
Answer: Its Evans blue extravasation is 86.31 ± 8.74 µg/kg.

Question: And the Evans blue extravasation ([4]; TT-232 20 μg/kg i.v.)?
Answer: The Evans blue extravasation was 77.4 ± 4.59 µg/kg.

Question: What about the “increase in the nociceptive threshold (analgetic effect)” value (“increase in the nociceptive threshold” for short) ([5]; 1.25 μg i.v.) of the same substance?
Answer: The value was 30%.

Question: And the “increase in the nociceptive threshold” value ([5]; 2.5 μg i.v.)?
Answer: The value was 37%.

Question: What about the “increase in the nociceptive threshold” value ([5]; 5 μg i.v.) of the same substance?
Answer: Its value is 50%.

Question: And the “increase in the nociceptive threshold” value ([5]; 10 μg i.v.)?
Answer: Its value is 60%.
